{
  "source": "DBAASP",
  "assay_in_all_cases": "≥ marks a high value that may be exact or a test limit, other limits are often not marked, values filed in µg/mL are converted to µM",
  "key": {"[1]": {"system": "Corynebacterium glutamicum ATCC 13032"}, "[2]": {"system": "Psychrobacter immobilis NCIMB 308"}, "[3]": {"system": "Aeromonas salmonicida NCIMB 1102"}, "[4]": {"system": "Staphylococcus aureus ATCC 9144"}, "[5]": {"system": "Escherichia coli ATCC 25922"}, "[6]": {"system": "Vibrio anguillarum VI-F258-3"}, "[7]": {"system": "Planococcus citreus NCIMB 1493"}, "[8]": {"system": "Yersinia ruckeri VI-3629"}, "[9]": {"system": "Micrococcus luteus ATCC 4698"}, "[10]": {"system": "Vibrio anguillarum NCIMB 2129"}, "[11]": {"system": "Yersinia ruckeri NCIMB 2196"}, "[12]": {"system": "Vibrio anguillarum NCIMB 2133"}, "[13]": {"system": "Xanthomonas axonopodis pv. citri"}, "[14]": {"system": "Escherichia coli ATCC 8739"}, "[15]": {"system": "Staphylococcus aureus ATCC 25923"}, "[16]": {"system": "Staphylococcus aureus ATCC 29313"}, "[17]": {"system": "Pseudomonas aeruginosa ATCC 27853"}, "[18]": {"system": "Escherichia coli 363"}, "[19]": {"system": "Micrococcus luteus"}, "[20]": {"system": "Vibrio harveyi"}, "[21]": {"system": "Vibrio anguillarum"}, "[22]": {"system": "Bacillus subtilis"}, "[23]": {"system": "Aerococcus viridans"}, "[24]": {"system": "Aeromonas hydrophila"}, "[25]": {"system": "Staphylococcus haemolyticus"}, "[26]": {"system": "Staphylococcus aureus CIB 85462"}, "[27]": {"system": "Escherichia coli CIB 84492"}, "[28]": {"system": "Escherichia coli"}, "[29]": {"system": "Staphylococcus aureus MR"}, "[30]": {"system": "Pseudomonas aeruginosa"}, "[31]": {"system": "Staphylococcus aureus"}, "[32]": {"system": "Yersinia pestis"}, "[33]": {"system": "Neisseria meningitidis"}, "[34]": {"system": "Mycobacterium tuberculosis"}, "[35]": {"system": "Salmonella typhimurium"}, "[36]": {"system": "Stenotrophomonas maltophilia B32/4"}, "[37]": {"system": "Candida albicans ATCC 90028"}, "[38]": {"system": "Staphylococcus epidermidis RP62A/1"}, "[39]": {"system": "Acinetobacter baumannii NM8"}, "[40]": {"system": "Staphylococcus epidermidis RP62A"}, "[41]": {"system": "Klebsiella pneumoniae ATCC 700603"}, "[42]": {"system": "Escherichia coli ATCC 25726"}},
  "data": [
    {"compound": "CC[C@H](C)[C@H](NC(=O)[C@H](CC(C)C)NC(=O)CNC(=O)[C@@H](NC(=O)[C@@H](NC(=O)[C@H](Cc1cnc[nH]1)NC(=O)[C@H](Cc1cnc[nH]1)NC(=O)[C@H](CC(C)C)NC(=O)[C@@H](N)Cc1ccccc1)[C@@H](C)CC)C(C)C)C(=O)N[C@@H](Cc1cnc[nH]1)C(=O)N[C@@H](Cc1cnc[nH]1)C(=O)NCC(=O)N[C@@H](CCCCN)C(=O)N[C@@H](CC(C)C)C(=O)N[C@@H](CC(=O)O)C(=O)N[C@@H](CCSC)C(=O)N[C@@H](Cc1ccc(O)cc1)C(=O)N[C@@H](CCCN=C(N)N)C(=O)N[C@@H](CO)C(=O)N[C@@H](CC(N)=O)C(=O)N[C@@H](CC(N)=O)C(=O)O", "note": "[FLHHIVGLIHHGKLDMYRSNN]", "values": [
      {"measurement": "MIC", "setting": "[1]", "value": 10, "unit": "µM"},
      {"measurement": "MIC", "setting": "[2]", "value": 10, "unit": "µM"},
      {"measurement": "MIC", "setting": "[3]", "value": 10, "unit": "µM"},
      {"measurement": "MIC", "setting": "[4]", "value": 10, "unit": "µM"},
      {"measurement": "MIC", "setting": "[5]", "value": "> 10", "unit": "µM"},
      {"measurement": "MIC", "setting": "[6]", "value": 10, "unit": "µM"},
      {"measurement": "MIC", "setting": "[7]", "value": 10, "unit": "µM"},
      {"measurement": "MIC", "setting": "[8]", "value": 10, "unit": "µM"},
      {"measurement": "MIC", "setting": "[9]", "value": 10, "unit": "µM"},
      {"measurement": "MIC", "setting": "[10]", "value": 10, "unit": "µM"},
      {"measurement": "MIC", "setting": "[11]", "value": 10, "unit": "µM"},
      {"measurement": "MIC", "setting": "[12]", "value": 10, "unit": "µM"}
    ]},
    {"compound": "CC(C)C[C@H](NC(=O)[C@H](C)NC(=O)[C@@H](NC(=O)[C@H](CCCCN)NC(=O)CNC(=O)[C@@H](NC(=O)[C@@H](NC(=O)[C@H](CCCCN)NC(=O)CNC(=O)[C@H](CC(C)C)NC(=O)[C@H](CO)NC(=O)[C@H](CCCCN)NC(=O)[C@H](CC(C)C)NC(=O)[C@H](CCCCN)NC(=O)[C@H](CC(=O)O)NC(=O)[C@H](CC(C)C)NC(=O)[C@H](Cc1c[nH]c2ccccc12)NC(=O)[C@H](C)N)C(C)C)C(C)C)C(C)C)C(=O)NCC(=O)N[C@H](C(=O)N[C@@H](C)C(=O)N[C@@H](CCC(N)=O)C(=O)N[C@@H](CC(N)=O)C(=O)N[C@@H](Cc1ccc(O)cc1)C(=O)N[C@@H](CC(C)C)C(=O)N[C@@H](CC(N)=O)C(=O)N1CCC[C@H]1C(=O)N[C@@H](CCC(N)=O)C(=O)N[C@@H](CCC(N)=O)C(=O)O)C(C)C", "note": "[AWLDKLKSLGKVVGKVALGVAQNYLNPQQ]", "values": [
      {"measurement": "MIC", "setting": "[5]", "value": 5, "unit": "µM"},
      {"measurement": "MIC", "setting": "[13]", "value": 2, "unit": "µM"},
      {"measurement": "MIC", "setting": "[14]", "value": 1.27, "unit": "µM"},
      {"measurement": "MIC", "setting": "[15]", "value": 1.27, "unit": "µM"},
      {"measurement": "MIC", "setting": "[16]", "value": 20, "unit": "µM"},
      {"measurement": "MIC", "setting": "[17]", "value": 10, "unit": "µM"}
    ]},
    {"compound": "CC[C@H](C)[C@H](N)C(=O)N1CCC[C@H]1C(=O)N[C@@H](C)C(=O)N[C@@H](CCSC)C(=O)N[C@@H](CCC(=O)O)C(=O)N1CCC[C@H]1C(=O)N[C@@H](C)C(=O)N[C@@H](C)C(=O)N[C@@H](CCCN=C(N)N)C(=O)N[C@H](C(=O)N[C@@H](CCCCN)C(=O)N[C@@H](CCCN=C(N)N)C(=O)N[C@@H](CO)C(=O)N1CCC[C@H]1C(=O)NCC(=O)N[C@@H](Cc1ccc(O)cc1)C(=O)NCC(=O)NCC(=O)N[C@H]1CSSC[C@@H](C(=O)NCC(=O)NCC(=O)N[C@@H](Cc2ccc(O)cc2)C(=O)NCC(=O)O)NC(=O)[C@H](C)NC(=O)[C@H](Cc2c[nH]c3ccccc23)NC(=O)[C@H](CCCN=C(N)N)NC(=O)[C@@H]2CCCN2C(=O)[C@H](CO)NC1=O)C(C)C", "note": "[IPAMEPAARVKRSPGYGGCSPRWACGGYG]", "values": [
      {"measurement": "MIC", "setting": "[18]", "value": "≥ 50", "unit": "µM"},
      {"measurement": "MIC", "setting": "[19]", "value": 25, "unit": "µM"},
      {"measurement": "MIC", "setting": "[20]", "value": "≥ 50", "unit": "µM"},
      {"measurement": "MIC", "setting": "[21]", "value": "≥ 50", "unit": "µM"},
      {"measurement": "MIC", "setting": "[22]", "value": "≥ 50", "unit": "µM"},
      {"measurement": "MIC", "setting": "[23]", "value": 12.5, "unit": "µM"},
      {"measurement": "MIC", "setting": "[24]", "value": "≥ 50", "unit": "µM"},
      {"measurement": "MIC", "setting": "[25]", "value": "≥ 50", "unit": "µM"}
    ]},
    {"compound": "CC[C@H](C)[C@@H]1NC(=O)[C@H](CC(C)C)NC(=O)[C@@H](NC(=O)[C@H](Cc2ccccc2)NC(=O)[C@@H](NC(=O)[C@@H](NC(=O)[C@@H]2CCCN2C(=O)[C@@H](NC(=O)[C@@H](NC(=O)[C@H](CCCCN)NC(=O)[C@H](C)NC(=O)[C@H](C)NC(=O)[C@@H](NC(=O)[C@H](CCCN=C(N)N)NC(=O)[C@H](CC(C)C)NC(=O)[C@@H](NC(=O)[C@H](C)NC(=O)[C@@H]2CCCN2C(=O)[C@H](CC(C)C)NC(=O)[C@@H](N)Cc2ccccc2)C(C)C)C(C)C)C(C)C)C(C)C)[C@@H](C)O)C(C)C)CSSC[C@@H](C(=O)O)NC(=O)[C@H](CCCCN)NC(=O)[C@H](CCCCN)NC(=O)[C@H](CO)NC1=O", "note": "[FLPAVLRVAAKVVPTVFCLISKKC]", "values": [
      {"measurement": "MIC", "setting": "[26]", "value": 3.07, "unit": "µM"},
      {"measurement": "MIC", "setting": "[5]", "value": 49.2, "unit": "µM"},
      {"measurement": "MIC", "setting": "[27]", "value": 24.6, "unit": "µM"},
      {"measurement": "MIC", "setting": "[15]", "value": 6.15, "unit": "µM"}
    ]},
    {"compound": "CC[C@H](C)[C@H](NC(=O)CNC(=O)CNC(=O)[C@H](CCSC)NC(=O)[C@H](CC(C)C)NC(=O)[C@H](CCC(=O)O)NC(=O)[C@H](CCCN=C(N)N)NC(=O)CNC(=O)[C@H](CCCN=C(N)N)NC(=O)[C@H](CCSC)NC(=O)CNC(=O)[C@@H](NC(=O)[C@H](CCCN=C(N)N)NC(=O)[C@H](CC(C)C)NC(=O)[C@@H](N)CS)[C@@H](C)CC)C(=O)NCC(=O)N[C@@H](CCCCN)C(=O)N[C@H](C(=O)N[C@@H](CCSC)C(=O)O)[C@@H](C)O", "note": "[CLRIGMRGRELMGGIGKTM]", "values": [
      {"measurement": "MIC", "setting": "[28]", "value": 144, "unit": "µM"},
      {"measurement": "MIC", "setting": "[29]", "value": "≥ 144", "unit": "µM"},
      {"measurement": "MIC", "setting": "[30]", "value": 144, "unit": "µM"},
      {"measurement": "MIC", "setting": "[31]", "value": 144, "unit": "µM"},
      {"measurement": "MIC", "setting": "[32]", "value": "≥ 144", "unit": "µM"},
      {"measurement": "MIC", "setting": "[33]", "value": "≥ 144", "unit": "µM"},
      {"measurement": "MIC", "setting": "[34]", "value": "≥ 144", "unit": "µM"},
      {"measurement": "MIC", "setting": "[35]", "value": "≥ 144", "unit": "µM"}
    ]},
    {"compound": "CC[C@H](C)[C@H](N)C(=O)N[C@@H](CC(C)C)C(=O)NCC(=O)N[C@@H](CCCCN)C(=O)N[C@@H](CC(C)C)C(=O)N[C@@H](CC(C)C)C(=O)N[C@@H](CO)C(=O)N[C@H](C(=O)N[C@@H](C)C(=O)N[C@@H](C)C(=O)NCC(=O)N[C@@H](CC(C)C)C(=O)N[C@@H](CC(C)C)C(=O)N[C@@H](CO)C(=O)N[C@@H](CCCCN)C(=O)N[C@@H](CC(C)C)C(N)=O)[C@@H](C)O", "note": "[ILGKLLSTAAGLLSKL]", "values": [
      {"measurement": "MIC", "setting": "[36]", "value": "≥ 128", "unit": "µM"},
      {"measurement": "MIC", "setting": "[37]", "value": "≥ 128", "unit": "µM"},
      {"measurement": "MIC", "setting": "[38]", "value": 8, "unit": "µM"},
      {"measurement": "MIC", "setting": "[39]", "value": "≥ 128", "unit": "µM"},
      {"measurement": "MIC", "setting": "[40]", "value": 16, "unit": "µM"},
      {"measurement": "MIC", "setting": "[41]", "value": "> 128", "unit": "µM"},
      {"measurement": "MIC", "setting": "[15]", "value": 32, "unit": "µM"},
      {"measurement": "MIC", "setting": "[42]", "value": "≥ 256", "unit": "µM"},
      {"measurement": "MIC", "setting": "[17]", "value": "> 128", "unit": "µM"}
    ]}
  ]
}
